# From patent US10472352B2, “Rac inhibitors” (Geneyus LLC, priority 2017, dated 2019)
# Experiments:
# [1] = test system: androgen receptor splice variant (ARV7) in LNCaP cells; experiment: LNCaP ARE Luciferase Assay, ARV7 cells; format: cell-based; settings: LNCaP cells overexpressing ARV7, 10 nM DHT, 4 hours; 5 or 10 uM 0032661
# Description: LNCaP prostate cancer cells as well as LNCaP cells that overexpress the oncogenic androgen receptor splice variant (designated ARV7) were engineered to express an Androgen Receptor (AR) luciferase reporter (SABiosciences). […] After 4 hours, cell lysate was harvested. 50 μg protein lysates were used in a luciferase assay.
# [2] = biological target: His-Rac1 / GST-PBD (PAK Binding Domain) (Homo sapiens, UniProt P63000); experiment: Rac Activation AlphaScreen Assay (Rac1 AS); format: biochemical; settings: 500 nM GTPγS, 37° C., 1 hour; 'positive' = signal generated was higher than the positive control
# Description: AlphaScreen® assays were performed in 96-well microplates in a final reaction volume of 60 μl. Recombinant His-Rac1, recombinant GST-PBD (PAK Binding Domain), donor and acceptor beads (PerkinElmer), and inhibitors were incubated in exchange buffer (20 mM Tris pH 7.5, 50 mM NaCl, 1 mM MgCl2, 1 mM EDTA, 500 nM GTPγS (guanosine 5′-[γ-thio]triphosphate)) at 37° C. Readings were performed on a Tecan M1000 pro microplate reader after 1 hour.
# [3] = test system: Androgen Receptor (AR) luciferase reporter in LNCaP prostate cancer cells; experiment: Inhibition of Androgen Receptor Luciferase Expression; format: cell-based; settings: 10 nM DHT, 4 hours, 1 uM bicalutamide, 1 uM enzalutamide, 5 or 10 uM 0032661
# Description: After 4 hours, cell lysate was harvested. 50 μg protein lysates were used in a luciferase assay. The data, shown in FIG. 12, is expressed as relative luciferase units (RLU).
# [4] = test system: MCF-7 human breast cancer cell line; experiment: Cell Viability Assay (MCF7), PrestoBlue; format: cell-based; settings: MCF7, 72 h, MCF-7 cells, three days after drug treatment
# Outline: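 MCF-7 cells seeded 24 hours before dosing with 0 to 200 μM compound (11 concentrations, 1% DMSO final) for three days. PrestoBlue (resazurin) added to 10% final, 1 hour incubation, fluorescence at ex 560/em 590 nm; percentage living cells relative to control wells.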
structure (smiles),measurement,setting,value
"FC(F)(F)c1ccc2c(SCCCCCCn3cnc(CN4CCOCC4)c3)ccnc2c1 [Compound 0032661, 4-[[1-[6-[[7-(trifluoromethyl)-4-quinolyl]sulfanyl]hexyl]imidazol-4-yl]methyl]morpholine]",luciferase expression of the ARV7 splice variant,[1],inhibited luciferase expression of the ARV7 splice variant
same,IC50,[2],44.8 µM
same,androgen receptor luciferase expression (RLU),[3],inhibit the androgen receptor luciferase expression
same,IC50,[4],6.6 µM
